Earlier results in patent US20040047892A1, “Filler composition for soft tissue augmentation and reconstructive surgery” (priority 2003, published 2004).

Q: With collagen as the substance, how does the “time until the filler disappears” value (depending on the patient and site of injection) read?
A: within a few months

Q: What about the “share of the population allergic” value (in vivo) of the same substance?
A: about 3%
